# In US20020082254A1, “Compounds for treating disorders where a decreased level of plasma FFA is desired” (priority 2000, published 2002):
# pIC50: −log10 of the molar value.
# Assays:
# [1] = target: T1, Hormone-sensitive lipase (HSL) (Homo sapiens, UniProt Q05469); assay: Hormone-sensitive lipase (HSL) inhibition assay, 3H-labeled triolein or MOME substrate; assay type: biochemical; conditions: read-out: HSL inhibition (IC50)
# T1 sequence (Q05469 1-1076): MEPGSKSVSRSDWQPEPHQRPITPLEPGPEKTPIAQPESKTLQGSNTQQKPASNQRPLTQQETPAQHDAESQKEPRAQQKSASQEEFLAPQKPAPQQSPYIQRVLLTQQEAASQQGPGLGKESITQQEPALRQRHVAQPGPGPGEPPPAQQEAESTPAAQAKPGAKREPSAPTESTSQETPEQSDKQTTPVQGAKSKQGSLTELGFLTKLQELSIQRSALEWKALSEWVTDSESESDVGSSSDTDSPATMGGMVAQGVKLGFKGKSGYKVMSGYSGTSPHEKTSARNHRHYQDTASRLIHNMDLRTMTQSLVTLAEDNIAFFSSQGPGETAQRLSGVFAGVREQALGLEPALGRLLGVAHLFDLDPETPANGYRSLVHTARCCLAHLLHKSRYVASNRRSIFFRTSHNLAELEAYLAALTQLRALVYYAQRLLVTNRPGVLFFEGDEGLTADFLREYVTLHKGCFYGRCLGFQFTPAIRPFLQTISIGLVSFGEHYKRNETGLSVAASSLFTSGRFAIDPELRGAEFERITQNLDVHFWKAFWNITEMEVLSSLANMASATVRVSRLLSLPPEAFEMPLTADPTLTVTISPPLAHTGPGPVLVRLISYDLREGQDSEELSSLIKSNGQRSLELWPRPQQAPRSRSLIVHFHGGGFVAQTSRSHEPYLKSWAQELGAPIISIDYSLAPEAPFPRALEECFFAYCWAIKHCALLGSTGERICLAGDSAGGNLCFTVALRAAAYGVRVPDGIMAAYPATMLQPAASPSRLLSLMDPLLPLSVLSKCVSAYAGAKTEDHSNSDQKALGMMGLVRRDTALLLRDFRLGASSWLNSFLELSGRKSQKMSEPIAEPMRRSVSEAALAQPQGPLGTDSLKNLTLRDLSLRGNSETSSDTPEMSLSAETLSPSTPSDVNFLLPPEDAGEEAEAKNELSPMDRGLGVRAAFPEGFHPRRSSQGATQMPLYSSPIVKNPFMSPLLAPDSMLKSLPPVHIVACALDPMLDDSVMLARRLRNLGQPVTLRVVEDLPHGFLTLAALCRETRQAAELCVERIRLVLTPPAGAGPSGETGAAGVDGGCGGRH
# From the text: (§1) Hormone-sensitive lipase (HSL) [classified as a triacylglycerol lipase, EC 3.1.1.3, in accordance with the Recommendations of the Nomenclature Committee of the International Union of Biochemistry and Molecular Biology (available on the World Wide Web at the following address: http://www.chem.qmw.ac.uk/iubmb/enzyme/)]
# Materials. The Hormone-sensitive lipase employed was provided by Dr. Cecilia Holm of Lund University, Sweden, or produced and purified by Novo Nordisk (NN) using the reagents and protocols employed by Dr. Holm. The substrates used are: ^3H-labeled triolein (TO) from Amersham, Buckinghamshire, U.K. cat No. TRA191; 5-20 Ci/mmol dissolved in toluene, triolein (Sigma, Cat. No. T-1740) and mono-oleoyl-2-O-mono-oleylglycerol (MOME) synthesized at (NN) using the protocols provided by Dr. Cecilia Holm, Lund University, Sweden. Phosphatidyl choline (PC) and phosphatidyl inositol (PI) are from Sigma (St Luis Mo., cat. Nos. P-3556 and P-5954, respectively). All other reagents are of commercial grade and obtained from various commercial sources.
# Methods. The preparation of the substrates is as follows:
# TO: 30 μl PC:PI (20 mg/ml solution of PC:PI 3:1 prepared in chloroform)+128 μl cold TO+15 μl ^3H-TO
# MOME: 30 μl PC:PI+100 μl cold MOME+200 μl ^3H-MOME
# They are then evaporated under a gentle stream of N2 followed by 20-30 minutes in a Speedvac™ apparatus to ensure the absence of residual solvent.
# The samples are prepared as follows:
# Samples/controls: 78 μl PED-BSA+20 μl inhibitor (various concentrations)+2 μl HSL (undiluted 0.12 mg/ml). If no inhibitors are being tested, the reaction contains 98 μl PED-BSA+2 μl HSL.
# The samples are put on ice and then sonicated as follows:
# With TO as substrate, add 2 ml potassium buffer (0.1M potassium phosphate, pH 7) and then sonicate twice for 1 minute, with a 1-minute interval between cycles. Add an additional 1 ml potassium buffer and sonicate 4 times for 30 seconds, with a 30 second interval in between cycles. To finish, add 1 ml BSA 20%-in potassium buffer, mix by inversion and store on ice until use.
# With MOME as substrate: add 2 ml potassium buffer and then sonicate twice for 1 minute, with a 1 minute interval between cycles. Add 1.6 ml potassium buffer and sonicate 4 times for 30 seconds, with a 30-second interval between cycles. To finish, add 0.4 ml BSA 20%-buffer, mix by inversion and store on ice until use.
# The enzyme reaction is run at 37° C. The substrate mix is added to the various reactions at 10 second intervals, incubated for 30 minutes in a water bath and then stopped with 3.25 ml of a solution containing CH3OH:CHCl3:heptane (10:9:7). After the addition of 1.05 ml potassium buffer pH10.5, the sample is vortexed thoroughly and centrifuged for 20 min at 2000 r.p.m. One ml of the upper phase is added to 10 ml scintillation fluid, and mixed thoroughly by shaking.
# The samples are then counted, 5 min per vial, in a scintillation counter.
# [2] = target: T2, Hepatic lipase (HL) (Homo sapiens, UniProt P11150); assay: Hepatic lipase (HL) inhibition assay, 3H-triolein substrate; assay type: biochemical; conditions: read-out: HL inhibition (% inh. at 50 μM)
# T2 sequence (P11150 23-499): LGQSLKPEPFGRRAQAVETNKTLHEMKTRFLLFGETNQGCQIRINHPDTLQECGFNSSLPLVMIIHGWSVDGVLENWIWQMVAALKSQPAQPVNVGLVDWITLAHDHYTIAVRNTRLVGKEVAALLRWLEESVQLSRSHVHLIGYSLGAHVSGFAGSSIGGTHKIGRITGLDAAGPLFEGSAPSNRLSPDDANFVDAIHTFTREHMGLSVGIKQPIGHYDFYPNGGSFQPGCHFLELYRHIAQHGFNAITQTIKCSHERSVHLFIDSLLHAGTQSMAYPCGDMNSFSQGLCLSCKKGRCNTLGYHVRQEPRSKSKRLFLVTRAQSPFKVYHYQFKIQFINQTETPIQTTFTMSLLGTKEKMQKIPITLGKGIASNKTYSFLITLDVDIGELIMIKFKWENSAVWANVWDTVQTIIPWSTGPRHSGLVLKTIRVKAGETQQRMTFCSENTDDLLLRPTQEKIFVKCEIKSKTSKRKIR
# From the text: as §1, with “Hepatic Lipase (HL)” for “Hormone-sensitive lipase (HSL)”
# Materials. The hepatic lipase employed was obtained from Dr. Howard Wong of the University of California at Los Angeles (UCLA), USA, or produced and purified using the methods and a cell line provided by Dr. Wong's laboratory. ^3H-triolein (TO) from Amersham, Buckinghamshire, U.K., cat No. TRA191; 5-20 Ci/mmol dissolved in toluene and triolein (Sigma, Cat. No. T-1740). All other reagents are of commercial grade and obtained from various commercial sources.
# 50 μl TO in a 20 ml scintillation vial and evaporate with N2 for 5 minutes.
# Add 1 ml 10% gum arabic and 1.25 ml Tris-Cl pH 8.5 and 2 ml MilliQ water.
# Sonicate, on ice, 16 times for 30 seconds with a 30-second interval between cycles.
# Add 2.5 ml of 5 M NaCl+2.5 ml BSA (10% in Milli Q, pH 8)+3.25 ml Milli Q
# Total volume: 12.5 ml (for 80 reactions )
# If an inhibitor is going to be used, it should be incubated with the 50 μl HL (of a 125 mU/ml solution) for 70 minutes at 25° C. A 5 μl aliquot from the incubated 50 μl is added to 150 μl assay mix+45 μl Milli Q™ water and mixed.
# Incubate for exactly 30 minutes at 25° C.
# Stop the reaction with Methanol:chloroform:heptane 10:9:7: 3.25 ml/vial, mix; then add 1.05 ml buffer (100 mM boric acid, 100 mM potassium carbonate pH 10.5), mix for 10 seconds per vial.
# Centrifuge for 20 min/2000 rpm
# Take 1 ml of the upper phase+10 ml scintillation fluid and mix by shaking by hand.
# Scintillation count for 5 minutes per vial.
compound,measurement,setting,value
"O=C(NN1CCc2ccccc2C1)Oc1ccccc1 [Example 1, (3,4-Dihydro-1H-isoquinolin-2-yl)-carbamic Acid Phenyl Ester]",pIC50,[1],6.70
same,inhibition at 50 µM,[2],5%
